Results as given in patent publication US20190216093A1, “COMPOSITIONS AND RELATED METHODS FOR AGRICULTURE” (priority 2017, published 2019).

Key:
Sitophilus maize weevils [1] = experiment: Weevil survival monitoring; type: in vivo, Sitophilus zeamais; conditions: S. zeamais mating pairs; 250 μg/ml or 2.5 mg/ml ciprofloxacin; 18 days
Method: Sitophilus maize weevils (Sitophilus zeamais) were reared on organic corn at 27.5° C. and 70% relative humidity. Prior to being used for weevil rearing, corn was frozen for 7 days and then tempered to 10% humidity with sterile water. […] For treatments, the appropriate amount of stock solution was diluted in sterile water.
Weevil survival was monitored daily for 18 days, after which DNA was extracted from the remaining weevils in each group. Briefly, the weevil body was surface sterilized by dipping the weevil into a 6% bleach solution for approximately 5 seconds. […] DNA concentration was measured using a nanodrop nucleic acid quantification, and SPE and weevil DNA copy numbers were measured by qPCR. […] The primers used for weevil (β-actin) were SACT144_FOR ([…]; SEQ ID NO: 240) and SACT314_REV ([…]; SEQ ID NO: 241) (Login et al., 2011). qPCR was performed using a qPCR amplification ramp of 1.6 degrees C./s and the following conditions: 1) 95° C. for 10 minutes, 2) 95° C. for 15 seconds, 3) 57° C. for 30 seconds, 4) repeat steps 2-3 40×, 5) 95° C. for 15 seconds, 6) 55° C. for 1 minute, 7) ramp change to 0.15 degrees C./s, 8) 95° C. for 1 second. qPCR data was analyzed using analytic (Thermo Fisher Scientific, QuantStudio Design and Analysis) software.

Sitophilus maize weevils [2] = experiment: Weevil F1 offspring development (dissection of corn kernels); type: in vivo, Sitophilus zeamais; conditions: for offspring in the larval form: after 25 days; for number of offspring found in dissected corn kernels: after 25 days (water 12)
Escherichia coli DH5α = experiment: Assessment of antibiotic penetration into corn (E. coli growth on LB plates); type: cell-based; conditions: kernels soaked in 2.5 or 0.25 mg/ml ciprofloxacin
Method: The kernels were soaked for 1.5 hours as described herein. After soaking, kernels were air dried and assayed to determine whether the antibiotic was able to coat and penetrate the kernel. To test this, a concentrated sample of Escherichia coli DH5α in water was spread onto 5 Luria Broth (LB) plates. […] The plates were incubated overnight at 37 degrees C. and bacterial growth and/or zone(s) of inhibition were assessed the next day.
A concentrated culture of E. coli was then spread onto LB plates and one of the coated kernels was then placed onto the center of the plate. The plates were incubated overnight, and bacterial growth was assessed the next day.
The plates were incubated overnight and the next day bacterial growth was assessed.

Sitophilus maize weevils [3] = experiment: Weevil offspring emergence (fecundity); conditions: 2.5 mg/ml ciprofloxacin; till day 43

Structure (SMILES): O=C(O)c1cn(C2CC2)c2cc(N3CCNCC3)c(F)cc2c1=O [ciprofloxacin]
- weevil survival (Sitophilus maize weevils [1]): all weevils remained alive for the course of the experiment
- F1 weevil development (Sitophilus maize weevils [2]; 250 ug/ml and 2.5 mg/ml ciprofloxacin): showed a delay in development compared to control treated weevils
- offspring in the larval form (Sitophilus maize weevils [2]; 250 ug/ml ciprofloxacin): 38%
- number of offspring found in dissected corn kernels (Sitophilus maize weevils [2]; 250 ug/ml ciprofloxacin): 13 offspring
- offspring in the larval form (Sitophilus maize weevils [2]; 2.5 mg/ml ciprofloxacin): 65%
- number of offspring found in dissected corn kernels (Sitophilus maize weevils [2]; 2.5 mg/ml ciprofloxacin): 20 offspring
- bacterial growth on plate with entire soaked corn kernel (Escherichia coli DH5α): no bacteria grew on plates with entire corn kernels
- emerged F1 offspring (Sitophilus maize weevils [3]): much less offspring that emerged
